Among the data in PubChem BioAssay AID216 (DTP/NCI, 2004) are T/C values, retold here.

Several values for one entry are separate records, joined by “and”; a condition that tells them apart may be missing. Equal values may be shown once. Inconclusive results and toxic doses are left out.

This experiment relates to BDF1 mice, P288 leukemia ip, survival T/C. Nature of the experiment: NCI In Vivo Anticancer Drug Screen. Data for tumor model P288 Lymphocytic Leukemia (intraperitoneal) in B6D2F1 (BDF1) mice. The settings on record: endpoint: survival time, mean or median, higher = longer survival. As for the experimental part:
The antitumor activity of compounds was measured in mice bearing transplantable tumors. Survival or tumor size were measured and the results are expressed as the measurement made in the treated group (T) divided by the measurement made in the vehicle treated control group (C). The tumor model used in this assay is P288 Lymphocytic Leukemia (intraperitoneal) in B6D2F1 (BDF1) mice

Setting [1] is: dose: 3.0 mg/kg/injection, schedule: Q01DX010 (ip), vehicle: saline.
The mark [2] stands for this setting: dose: 6.0 mg/kg/injection, schedule: Q01DX010 (ip), vehicle: saline.
Setting [3] is: dose: 6.25 mg/kg/injection, schedule: Q01DX Z (ip), vehicle: carboxymethylcellulose (CMC).
Setting [4] is: dose: 12.0 mg/kg/injection, schedule: Q01DX010 (ip), vehicle: saline.
Where [5] appears, read: dose: 12.5 mg/kg/injection, schedule: Q01DX Z (ip), vehicle: carboxymethylcellulose (CMC).
The mark [6] stands for this setting: dose: 25.0 mg/kg/injection, schedule: Q01DX Z (ip), vehicle: carboxymethylcellulose (CMC).

With `O=c1[nH]c(=O)n(C2CC(O)C(CO)O2)cc1Br` (stereo not drawn), the T/C by setting is: (dose: 6.5 mg/kg/injection, schedule: Q01DX Z (ip), vehicle: carboxymethylcellulose (CMC)) 96 % of control; (dose: 8.0 mg/kg/injection, schedule: Q01DX Z (ip), vehicle: carboxymethylcellulose (CMC)) 95 % of control; (dose: 13.0 mg/kg/injection, schedule: Q01DX Z (ip), vehicle: carboxymethylcellulose (CMC)) 107 % of control; (dose: 26.0 mg/kg/injection, schedule: Q01DX Z (ip), vehicle: carboxymethylcellulose (CMC)) 102 % of control; (dose: 31.0 mg/kg/injection, schedule: Q01DX Z (ip), vehicle: carboxymethylcellulose (CMC)) 90 % of control.
For `CC[C@]1(O)C[C@H]2CN(CCc3c([nH]c4ccccc34)[C@@](C(=O)OC)(c3cc4c(cc3OC)N(C=O)[C@H]3[C@@](O)(C(=O)OC)[C@H](OC(C)=O)[C@]5(CC)C=CCN6CC[C@]43[C@@H]65)C2)C1`, the T/C (dose: 0.06 mg/kg/injection, schedule: Q01DX Z (ip), vehicle: water) was 102 % of control; the T/C (dose: 0.12 mg/kg/injection, schedule: Q01DX Z (ip), vehicle: water) was 109 % of control; the T/C (dose: 0.25 mg/kg/injection, schedule: Q01DX Z (ip), vehicle: water) is 116 % of control; the T/C (dose: 0.5 mg/kg/injection, schedule: Q01DX Z (ip), vehicle: water) is 120 % of control and 101 % of control.
For the molecule `CCN(CC)c1ccc2cc3ccc(=[N+](CC)CC)cc-3oc2c1`, the T/C was 110 % of control (dose: 0.08 mg/kg/injection, schedule: Q01DX Z (ip), vehicle: carboxymethylcellulose (CMC)); 90 % of control (dose: 0.16 mg/kg/injection, schedule: Q01DX Z (ip), vehicle: carboxymethylcellulose (CMC)); 108 % of control (dose: 0.31 mg/kg/injection, schedule: Q01DX Z (ip), vehicle: carboxymethylcellulose (CMC)); 96 % of control (dose: 0.32 mg/kg/injection, schedule: Q01DX Z (ip), vehicle: carboxymethylcellulose (CMC)); 100 % of control (dose: 0.63 mg/kg/injection, schedule: Q01DX Z (ip), vehicle: carboxymethylcellulose (CMC)); 106 % of control (dose: 1.25 mg/kg/injection, schedule: Q01DX Z (ip), vehicle: carboxymethylcellulose (CMC)). The T/C was 102 % of control (dose: 2.5 mg/kg/injection, schedule: Q01DX Z (ip), vehicle: carboxymethylcellulose (CMC)); 115 % of control and 117 % of control (dose: 5.0 mg/kg/injection, schedule: Q01DX Z (ip), vehicle: carboxymethylcellulose (CMC)).
For `CC(=O)N(C)C`, the T/C is 103 % of control (dose: 31.0 mg/kg/injection, schedule: Q01DX Z (ip), vehicle: saline); 100 % of control (dose: 125.0 mg/kg/injection, schedule: Q01DX Z (ip), vehicle: saline); 93 % of control (dose: 250.0 mg/kg/injection, schedule: Q01DX Z (ip), vehicle: saline); 88 % of control (dose: 500.0 mg/kg/injection, schedule: Q01DX Z (ip), vehicle: saline); 88 % of control (dose: 2000.0 mg/kg/injection, schedule: Q01DX Z (ip), vehicle: saline).
As to `O=C(Nc1ccc(C2=NCCN2)cc1)c1ccc(C(=O)Nc2ccc(C3=NCCN3)cc2)c(Cl)c1`, the T/C is 108 % of control and 120 % of control (dose: 2.0 mg/kg/injection, schedule: Q01DX010 (ip), vehicle: other); 107 % of control (dose: 7.5 mg/kg/injection, schedule: Q01DX Z (ip), vehicle: water); 160 % of control and 183 % of control (dose: 8.0 mg/kg/injection, schedule: Q01DX010 (ip), vehicle: other); 232 % of control and 262 % of control (dose: 16.0 mg/kg/injection, schedule: Q01DX010 (ip), vehicle: other); 154 % of control (dose: 30.0 mg/kg/injection, schedule: Q01DX Z (ip), vehicle: water); 120 % of control and 296 % of control (dose: 32.0 mg/kg/injection, schedule: Q01DX010 (ip), vehicle: other).
As for `Nc1ncnc2[nH]ncc12`, the T/C reads like this: (dose: 1.5 mg/kg/injection, schedule: Q01DX010 (ip), vehicle: saline) 93 % of control and 100 % of control; under setting [1], 107 % of control and 100 % of control; under setting [2], 100 % of control; under setting [3], 92 % of control; under setting [4], 112 % of control; under setting [5], 94 % of control. Moreover, the T/C under setting [6] was 94 % of control.
Regarding `O=C(O)CCCc1ccc(N(CCCl)CCCl)cc1`, the T/C runs as follows: (dose: 3.1 mg/kg/injection, schedule: Q01DX Z (ip), vehicle: carboxymethylcellulose (CMC)) 110 % of control; (dose: 3.13 mg/kg/injection, schedule: Q01DX010 (ip), vehicle: saline) 88 % of control; (dose: 6.25 mg/kg/injection, schedule: Q01DX010 (ip), vehicle: saline) 100 % of control; under setting [3], 90 % of control; (dose: 12.5 mg/kg/injection, schedule: Q01DX010 (ip), vehicle: saline) 100 % of control; under setting [5], 106 % of control. Besides, under setting [6], the T/C was 114 % of control and 88 % of control.
With `CN(Cc1cnc2nc(N)nc(N)c2n1)c1c(Cl)cc(C(=O)NC(CCC(=O)O)C(=O)O)cc1Cl` (stereo not drawn), the T/C reads like this: under setting [5], 232 % of control; under setting [6], 300 % of control; (dose: 50.0 mg/kg/injection, schedule: Q01DX Z (ip), vehicle: carboxymethylcellulose (CMC)) 320 % of control; (dose: 100.0 mg/kg/injection, schedule: Q01DX Z (ip), vehicle: carboxymethylcellulose (CMC)) 288 % of control.
Consider `N=C(N)c1ccc(Nc2ccc(C(=N)N)cc2)cc1`, for which the T/C by setting is: (dose: 1.6 mg/kg/injection, schedule: Q01DX Z (ip), vehicle: methylcellulose (MC)) 86 % of control; under setting [1], 100 % of control; under setting [2], 106 % of control; (dose: 6.25 mg/kg/injection, schedule: Q01DX Z (ip), vehicle: methylcellulose (MC)) 88 % of control; (dose: 6.3 mg/kg/injection, schedule: Q01DX Z (ip), vehicle: methylcellulose (MC)) 90 % of control; under setting [4], 100 % of control. For the same molecule, the T/C was 115 % of control (dose: 12.5 mg/kg/injection, schedule: Q01DX Z (ip), vehicle: methylcellulose (MC)); 87 % of control (dose: 24.0 mg/kg/injection, schedule: Q01DX010 (ip), vehicle: saline); 87 % of control (dose: 25.0 mg/kg/injection, schedule: Q01DX Z (ip), vehicle: methylcellulose (MC)).
For `CC/C(=C(/CC)c1ccc(O)cc1)c1ccc(O)cc1`, the T/C (dose: 1.0 mg/kg/injection, schedule: Q01DX Z (sc), vehicle: steriod suspending solution) is 100 % of control; the T/C (dose: 2.0 mg/kg/injection, schedule: Q01DX Z (sc), vehicle: steriod suspending solution) is 103 % of control; the T/C (dose: 4.0 mg/kg/injection, schedule: Q01DX Z (sc), vehicle: steriod suspending solution) was 97 % of control; the T/C (dose: 8.0 mg/kg/injection, schedule: Q01DX Z (sc), vehicle: steriod suspending solution) is 118 % of control; the T/C (dose: 12.5 mg/kg/injection, schedule: Q01DX010 (sc), vehicle: steriod suspending solution) is 100 % of control; the T/C (dose: 16.0 mg/kg/injection, schedule: Q01DX Z (sc), vehicle: steriod suspending solution) is 118 % of control. Further, the T/C (dose: 25.0 mg/kg/injection, schedule: Q01DX010 (sc), vehicle: steriod suspending solution) was 106 % of control; the T/C (dose: 31.0 mg/kg/injection, schedule: Q01DX Z (sc), vehicle: steriod suspending solution) was 103 % of control; the T/C (dose: 50.0 mg/kg/injection, schedule: Q01DX010 (sc), vehicle: steriod suspending solution) is 112 % of control and 121 % of control; the T/C (dose: 62.0 mg/kg/injection, schedule: Q01DX Z (sc), vehicle: steriod suspending solution) was 97 % of control; the T/C (dose: 100.0 mg/kg/injection, schedule: Q01DX010 (sc), vehicle: steriod suspending solution) is 114 % of control and 100 % of control; the T/C (dose: 125.0 mg/kg/injection, schedule: Q01DX Z (sc), vehicle: steriod suspending solution) is 91 % of control. Also, the T/C (dose: 250.0 mg/kg/injection, schedule: Q01DX Z (sc), vehicle: steriod suspending solution) was 101 % of control.
